Data: patent publication US11608313B2, “Adamantylmethylamine derivative and use thereof as pharmaceutical” (TOHOKU UNIVERSITY, priority 2017, dated 2023)

Key:
[1] = system: Kir6.2 channel-overexpressing cells; experiment: Calcium imaging in Kir6.2 channel-overexpressing cells; type: cell-based
Procedure: The same Kir6.2 channel-overexpressing cells as used in Test Example 1 were used to measure, by calcium imaging, the levels of calcium entering the cells after TP-014 treatment. The calcium imaging is a method in which cultured nerve cells are treated with a culture medium supplemented with a calcium fluorescent dye (Fura2, produced by Dojindo Laboratories) to a concentration of 4 μM, and measured for the levels of calcium based on fluorescence intensity. The imaging was carried out using an imaging apparatus (LAMBDA 10-2, produced by Sutter Instrument) in accordance with the attached manual.

[2] = system: Alzheimer's disease model mice (APP23 mice); experiment: Cognitive function in Alzheimer's disease model mice (Test Example 4); type: in vivo; conditions: APP23 mice 12 month-old, 1 mg/kg orally once a day for two months
From the text: The test compound was orally administered in a dissolved state in a 0.5% aqueous solution of carboxymethyl cellulose (vehicle) (the same applies hereunder).

APP23 mice = experiment: Fear conditioning test in APP23 mice; type: in vivo; conditions: treated for two months
From the text: The fear conditioning test is an analysis method that takes advantage of the characteristic preference of mice for a dark place over a bright place. On day 1, a mouse is placed in a bright place. The mouse, which prefers darkness, enters a dark place (dark box), but then electrical simulation is delivered to the mouse. The mouse is surprised, returns to the bright place, and never enters the dark place. On day 2, the mouse is placed again in the bright place (the same place as on day 1) and observed for 5 minutes to see whether the mouse enters a dark place. If the mouse immediately enters the dark place, it is determined that the mouse experiences a decline in fear memory. “Latency” refers to the number of seconds until the mouse placed in the bright place on day 2 enters a dark place.

[3] = system: olfactory bulbectomized mice (OBX mice); experiment: Cognitive function in olfactory bulbectomized mice (Y-maze, novel object recognition and other tests); type: in vivo; conditions: chronic oral treatment for 2 weeks
Procedure: The same experiment as in Test Example 4 was carried out using olfactory bulbectomized mice (OBX mice) as a neurodegenerative disease model. […] The OBX mice were prepared from 10-week-old DDY male mice (Nippon SLC, Hamamatsu, Japan). Olfactory bulbectomy surgery was carried out under anesthesia with pentobarbital sodium (50 mg/kg i.p.; Dainippon, Osaka, Japan). The mice were fixed on a stereotaxic apparatus to drill a 1 mm diameter hole in the skull above the olfactory bulb. The olfactory bulb was aspirated without causing damage to the prefrontal cortex. A sham group was prepared by the same procedure as that for the OBX group, without aspiration of olfactory bulb. One week was allowed for recovery from surgery, and behavioral analyses were performed on the day following the treatment with the test compound for 14 days (2 weeks).
The same model mice as described above were orally treated with a single dose of each of the test compounds (1 mg/kg), and analyzed after 1 hour by Y-maze test and novel object recognition test. The results are shown in FIGS. 22-3 and 22-4 (Y-maze test), and FIG. 22-5 (novel object recognition test).

[4] = system: Kir6.1-deficient mice (heterozygous); experiment: Tail-suspension test and forced swim test in Kir6.1-deficient mice; type: in vivo; conditions: chronic oral treatment for 2 weeks, 1 mg/kg
From the text: Kir6.1-deficient mice (heterozygous, n=5 per group) were used to measure immobility time by tail-suspension test (FIG. 12-1) and forced swim test (FIG. 12-2) according to the same procedure as in Test Example 11. The heterozygous mice are those with half expression of Kir6.1 channels, unlike homozygous mice (complete Kir6.1-deficient mice) (homozygous mice die of arrhythmia after birth). […] The Kir6.1-deficient mice were obtained from Professor Susumu Seino, School of Medicine of Kobe University (Mild T., et al., Nature Medicine, 2002, 8, 466-472).

ob/ob mice = experiment: Blood glucose levels in ob/ob mice; type: in vivo; conditions: chronic treatment 1 mg/kg for 4 weeks, on and after week 3
Procedure: In order to determine the hypoglycemic effect of TP-014, ob/ob mice were measured for blood glucose levels using an assay kit (produced by Technicon International Inc.). The measurement was taken for 4 weeks, and chronic treatment with TP-014 (1 mg/kg) was continued for 4 weeks. […] Tolbutamide was used as a control drug. Kir6.2 channels bind to SUR1 ([…]) on the cell membrane to form channels. The mechanism of action is considered to be inhibition of Kir6.2 channels. Tolbutamide inhibits Kir6.2 channels by binding to SUR1.

Structure (SMILES): O=C(N[C@@H](c1ccccc1)[C@H]1[C@H]2C[C@@H]3C[C@](Cl)(C2)C[C@@]1(OC(=O)C(F)(F)F)C3)C(F)(F)F [TP-014, (1S,2R,3S,5S,7S)-5-chloro-2-((R)-phenyl(2,2,2-trifluoroacetamido)methyl)adamantan-1-yl 2,2,2-trifluoroacetate]
- intracellular calcium levels ([1]; 1-100 nM, 4 minutes after treatment, Kir6.2 channel-overexpressing cells): significantly increased
- potency to enhance calcium levels compared with memantine ([1]; TP-014 1-100 nM vs memantine 100 nM): more potent to enhance calcium levels than memantine
- cognitive function enhancing effect [2]: significant cognitive function enhancing effect
- fear memory (latency, fear conditioning test) (APP23 mice): improvement in fear memory
- cognitive function impairment [3]: significantly improved
- depression-like symptom (immobility time) [4]: no effect
- blood glucose levels (ob/ob mice): significantly decreased
